Measured values from patent US9420781B1, “Agrochemical adjuvant concentrate for herbicides” (LAMBERTI SpA, priority 2015, dated 2016).

Legend:
Assay in all cases: Herbicidal Effectiveness Test
Type in all cases: in vivo
Settings in all cases: tank mix with Roundup PM 11 fl oz/a, Clarity 6 fl oz/a
LIUSS Flax = tested on: LIUSS Flax
Procedure: (§1) 4 diluted sprayable herbicide tank mixes were prepared using water with an hardness of 1000 ppm, 0.25% v/v of NIS and the adjuvant concentrates of Example 1 and 3-5.
(§2) For comparative purpose, two other diluted herbicide sprayable tank mixes with two different adjuvants, AMS and DPK 50, were prepared.
(§3) The formulations contained, as herbicides, Roundup® PM for an application rate of 11 fl oz/a (803 ml/h) and Clarity® for an application rate of 6 fl oz/a (438 ml/h).
(§4) The formulation were applied on a multispecies system.
(§5) The herbicidal performances were evaluated by awarding scores to the treated plants in comparison to untreated control plants. The evaluation scale ranges from 0% to 100% herbicidal activity. 100% activity means the complete death at least of those parts of the plant that are above ground.
(§6) The results 14 and 28 days after the treatment are reported in the following Table 3 and Table 4 respectively.

HELSS Sunflower = tested on: HELSS Sunflower
Procedure: as §1, §2, §3, §4, §5, §6

AMASS Amaranth = tested on: AMASS Amaranth
Procedure: as §1, §2, §3, §4, §5, §6

ZEAMX Corn = tested on: ZEAMX Corn
Procedure: as §1, §2, §3, §4, §5, §6

[1] = 14 days after treatment, adjuvant 8.5 lb/100 gal, 0.25% v/v NIS, water hardness 1000 ppm
[2] = 14 days after treatment, adjuvant 17 lb/100 gal, 0.25% v/v NIS, water hardness 1000 ppm
[3] = 28 days after treatment, adjuvant 8.5 lb/100 gal
[4] = 28 days after treatment, adjuvant 17 lb/100 gal

With `N.N.O=S(=O)(O)O` [AMS, ammonium sulfate] the “herbicidal activity, Flax” value (LIUSS Flax; [1]) was 74.3%, the “herbicidal activity, Flax” value (LIUSS Flax; [2]) was 88.3% and the “herbicidal activity, Flax” value (LIUSS Flax; [3]) was 76%. The “herbicidal activity, Flax” value (LIUSS Flax; [4]) was 90%, the “herbicidal activity, Sunflower” value (HELSS Sunflower; [1]) was 81% and the “herbicidal activity, Sunflower” value (HELSS Sunflower; [2]) was 94.3%. For the same molecule, the “herbicidal activity, Sunflower” value (HELSS Sunflower; [3]) was 91.7%, the “herbicidal activity, Sunflower” value (HELSS Sunflower; [4]) was 95% and the “herbicidal activity, Amaranth” value (AMASS Amaranth; [1]) was 75.3%. The “herbicidal activity, Amaranth” value (AMASS Amaranth; [2]) was 91%, the “herbicidal activity, Amaranth” value (AMASS Amaranth; [3]) was 79.3% and the “herbicidal activity, Amaranth” value (AMASS Amaranth; [4]) was 96%. For the same molecule, the “herbicidal activity, Corn” value (ZEAMX Corn; [1]) was 95%, the “herbicidal activity, Corn” value (ZEAMX Corn; [2]) was 96.3% and the “herbicidal activity, Corn” value (ZEAMX Corn; [3]) was 95%. The “herbicidal activity, Corn” value (ZEAMX Corn; [4]) was 97%.
